From ChEMBL document CHEMBL1133149, “Synthesis and biological evaluation of analogues of bacterial lipid I” (Bioorg Med Chem Lett, 2000)
≈ marks a conversion by molar mass, not a printed value.

Columns and labels:
[1] = Compound was evaluated for its ability to inhibit MraY enzyme for the conversion of Lipid I to lipid II in coupled MraY/MurG assay; NI is No Inhibition at 234 ug/mL; parameters: species or system Escherichia coli
[2] = (§1) Compound was evaluated for its ability to inhibit MurG enzyme for the conversion of Lipid I to lipid II in coupled MraY/MurG assay; NI is No Inhibition at 234 ug/mL; parameters: species or system Escherichia coli
Escherichia coli [3] = test: Compound was evaluated for its ability to inhibit the formation of peptidoglycan by incorporation of [14C]GlcNAc into TCA insoluble, filter-capturable material; NI is No Inhibition at 200 ug/mL; format: functional, organism-based
Escherichia coli [4] = test: Compound was evaluated for its ability to inhibit MraY enzyme for the conversion of Lipid I to lipid II in the coupled MraY/MurG assay; Ni is No Inhibition at 256 ug/mL
Escherichia coli [5] = test: Compound was evaluated for its ability to inhibit MurG enzyme for the conversion of Lipid I to lipid II in MurG enzyme assay; NI is No Inhibition at 256 ug/mL
Escherichia coli [6] = test: Compound was evaluated for its ability to inhibit MurG enzyme for the conversion of Lipid I to lipid II in coupled MraY/MurG assay; NI is No Inhibition at 256 ug/mL
Escherichia coli [7] = test: Compound was evaluated for its ability to inhibit MraY enzyme for the conversion of Lipid I to lipid II in the coupled MraY/MurG assay; Ni is No Inhibition at 238 ug/mL
Escherichia coli [8] = test: Compound was evaluated for its ability to inhibit MurG enzyme for the conversion of Lipid I to lipid II in the coupled MraY/MurG assay; NI is No inhibition at 238 ug/mL
[9] = Compound was evaluated for its ability to inhibit MurG enzyme for the conversion of Lipid I to lipid II in MurG enzyme assay; parameters: species or system Escherichia coli
Escherichia coli [10] = test: Compound was evaluated for its ability to inhibit MraY enzyme for the conversion of Lipid I to lipid II in the coupled MraY/MurG assay; Ni is No Inhibition at 234 ug/mL
Escherichia coli [11] = test: Compound was evaluated for its ability to inhibit MurG enzyme for the conversion of Lipid I to lipid II in MurG enzyme assay; NI is No Inhibition at 234 ug/mL
Escherichia coli [12] = test: as §1

CC(=O)N[C@H]1[C@@H](O[C@@H]2O[C@H](CC(O)[C@H]3O[C@@H](n4ccc(=O)[nH]c4=O)[C@H](O)[C@@H]3O)[C@H](O)[C@H](O)[C@H]2NC(=O)/C=C/CC(C)C)O[C@H](CO)[C@@H](N)[C@@H]1O (some centres undefined) [TUNICAMYCIN]
IC50 [1]: < 1 µg/mL

RAMOPLANIN
IC50 [2]: < 1 µg/mL

COC1OC(CO)C(O)C(O[C@@H](C)C(=O)N[C@@H](C)C(=O)N[C@H](CCC(=O)N[C@@H](CCCCN)C(=O)N[C@H](C)C(=O)N[C@H](C)C(=O)O)C(=O)O)C1NC(C)=O (some centres undefined)
Activity (Escherichia coli [3]): No inhibition | Activity (Escherichia coli [4]): No inhibition | Activity (Escherichia coli [5]): No inhibition | Activity (Escherichia coli [6]): No inhibition

CC(=O)NC1C(OP(=O)(O)O)OC(CO)C(O)C1O[C@@H](C)C(=O)N[C@@H](C)C(=O)N[C@H](CCC(=O)N[C@@H](CCCCN)C(=O)N[C@H](C)C(=O)N[C@H](C)C(=O)O)C(=O)O (some centres undefined)
Activity (Escherichia coli [3]): No inhibition | Activity (Escherichia coli [7]): No inhibition | Activity (Escherichia coli [8]): No inhibition | IC50 [9]: 50 µg/mL (≈ 59.3 µM)

CC(=O)NC1C(Sc2ccccc2)OC(CO)C(O)C1O[C@@H](C)C(=O)N[C@@H](C)C(=O)N[C@H](CCC(=O)N[C@@H](CCCCN)C(=O)N[C@H](C)C(=O)N[C@H](C)C(=O)O)C(=O)O (some centres undefined)
Activity (Escherichia coli [3]): No inhibition | Activity (Escherichia coli [10]): No inhibition | Activity (Escherichia coli [11]): No inhibition | Activity (Escherichia coli [12]): No inhibition
